# Reference: patent publication US20260207795A1, “SMALL MOLECULE TRACERS BINDING TO ALPHA-SYNUCLEIN AGGREGATES AND THEIR USES” (Fudan University, priority 2021, published 2026)
# Key:
# [1] = molecular target: T1, human α-synuclein aggregates (Homo sapiens, UniProt P37840); assay: Binding affinity of the compounds to α-synuclein aggregates (fluorescence method); settings: fluorescence saturation binding; α-synuclein aggregates (PFFs) 3 μM; room temperature, 1 hour
# T1 construct: made in house; host or cells: E. coli BL21 (DE3)
# Protocol: α-synuclein monomers were prepared into a buffer solution containing 1×PBS, where the final protein concentration was 100 μM ([…]), and incubated in a 1000 rpm shaker at 37° C. for 7 days to obtain α-synuclein aggregates. The initial and final concentrations of the monomer protein were determined by the BCA method.
# The prepared α-synuclein aggregates, also known as preformed fibrils (PFFs), are used for protein affinity testing, construction of cell model, and testing of the invention.
# 10 mM mother solution of DMSO was prepared from 1 mg of the compound, then diluted to 20 μM with PBS, and made gradient dilution 7 times (3× each dilution); 30 μL of test compound was added to the 384-well plate, following the experimental group was added to 30 μL α-synuclein aggregates (3 μM), and the control group was added to the same amount of PBS. After the 384-well plate was incubated shaking at 50 rpm at room temperature for 1 hour, the plate was taken out to detect the maximum absorption and emission wavelengths of the compound with an ELISA Microplate Reader, and the fluorescence values were detected at these wavelengths, too. The fluorescence changes in different concentrations of compounds were calculated using the experimental group data minus the control group data, and the protein-binding affinity of compounds was obtained using the Saturation binding module of GraphPad Prism.
# The binding affinity of the Formula I compound to α-synuclein aggregates is determined by the above method, and the dissociation equilibrium constant Kd is shown in Table 1.
# [2] = Blood-brain barrier permeability test in rat; format: in vivo; settings: brain homogenate / blood supernatant after centrifugation, intravenous, SD rats, 5 mg/kg tail vein, 20 min after administration, LC-MS/MS, >0.3 indicates good blood-brain barrier penetration, read-out: brain/blood ratio
# Protocol: The compound of the invention is injected into a rat tail vein to determine the blood-brain barrier permeability in vivo according to the following method.
# Dissolve the tested compound in DMSO, and add castor oil and PBS for dilution (DMSO:castor oil:PBS=1:1:8). SD rats were weighed and given 5 mg/kg in the tail vein. 500 μL of blood was taken 20 min after administration after anesthetized with isoflurane. Cardiac perfusion was performed with 200 mL PBS and stopped until the organ faded, following brain tissue was got out and washed with PBS.
# After centrifuging the extracted blood at 9000 rpm for 5 min, 200 μL supernatant was taken, and added 800 μL methanol. After centrifuging at 14000 rpm for 10 min, the supernatant was taken and filtered through a 0.22 μm filter membrane and stored at −80° C. for use. 2 mL PBS and 2 mL methanol were added to about 0.5 g of brain tissue to make a tissue homogenization, and then 1 mL homogenate was taken out and centrifuged at 14,000 rpm for 10 min after 2 mL methanol was added, 1 mL supernatant was taken through 0.22 μm filter membrane and stored at −80° C. for use. The concentration of compounds in the above supernatant of blood and brain homogenate were checked by LC-MS/MS, respectively.
# A brain/blood ratio of <0.1, 0.1-0.3, or >0.3 indicates blood-brain barrier penetration of weak, moderate, or good, respectively. […] Since all the compounds of the invention have similar structures and their clogP values are mostly between 1.0 and 3.0, it can be predicted that other compounds of the invention should also have acceptable blood-brain barrier permeability.
# [3] = molecular target: T2, α-synuclein aggregates in SH-SY5Y cells (Homo sapiens, UniProt P37840); assay: Immunofluorescence imaging of SH-SY5Y cell model with α-synuclein aggregates (PFFs); format: cell-based; settings: co-staining with α-synuclein antibody, compound 1 h at room temperature
# T2 construct: made in house; host or cells: E. coli BL21 (DE3)
# Protocol: SH-SY5Y cells belong to the SK—N—SH cell line and are a kind of human neuroblastoma cells. These cells can express a variety of important proteins of neurons, such as dopaminergic transporters, dopamine hydroxylase, and tyrosine hydroxylase, so they are often used in the study of the mechanism and pharmacodynamic evaluation of Parkinson's disease. The prepared α-synuclein aggregates (PFFs) are co-incubated with SH-SY5Y cells and endocytosed into cells after 12 hours through endocytosis. The cells were further incubated with α-synuclein antibodies and compounds successively, and observed by microscope after washing with PBS. The detailed operations are as follows.
# SH-SY5Y cells were cultured in a high-glucose DMEM medium (containing 10% Gibco fetal bovine serum). After 5 times of resuscitation and passage, the cell state tended to be stable. Then PFFs was added to the medium and fluorescent staining was performed after 48 h. After sucked the cell culture solution and cleaned with PBS three times, 0.3% Triton X-100 was added and incubated for 10 min. After washing with PBS, 10% goat serum was added and closed for 1 h; After cleaning with PBS, primary antibody (1:1000, 610786, BD Biosciences) was added and incubated at 4° C. overnight. After cleaning with PBS, secondary antibodies (1:1000, goat-anti-rabbit Alex Fluor 594, and goat-anti-mouse Alex Fluor 488, Invitrogen) were added and incubated at room temperature for 2 h. Finally, the compound of the invention is added and incubated at room temperature for 1 h. After cleaning with PBS, the tablet is sealed and photographed by a laser confocal microscope.
# [4] = molecular target: T3, Lewy bodies and Lewy neurites (α-synuclein lesions) (Homo sapiens, UniProt P37840); assay: Fluorescence staining of brain slices from patients of dementia with Lewy body (DLB)
# T3 construct: from tissue; host or cells: human DLB patient amygdala, fresh frozen sections
# Protocol: Brain slices from patients of dementia with Lewy bodies were taken from the amygdala of a deceased person in stage 2 of dementia with Lewy bodies. Frozen sections of the amygdala with rich α-synuclein were performed with a thickness of 20 μm.
# (§1) Compound I-15 was diluted to 30 μM with PBS solution containing 50% EtOH, following incubated with the fresh frozen brain sections at room temperature for 30 minutes, then washed with 50% ethanol solution for 5 minutes and ultra-pure water twice for 3 minutes each time in sequence. After the sections were buried with an embedding agent (VECTASHIELD H-1000, Vector Laboratories), images of the lesion accumulation area on the sections were obtained by fluorescence microscopy. Analysis software (Image J) was used to quantify the fluorescence radiance of both the lesion area and the area of the non-forming lesion (background) to evaluate binding selectivity.
# [5] = system: Aβ plaques and Tau neurofibrillary tangles; assay: Fluorescence staining of brain slices from patients with Alzheimer's disease (AD); parameters: species or system human; settings: AD patient superior temporal gyrus sections, compound 30 μM
# Protocol: as §1
# The dewaxed brain tissue was fixed in a 10% neutral buffer of formalin solution, embedded with paraffin, and then sliced with a thickness of 6 μm. The staining method is the same as the above method for DLB patients.
Structure (SMILES),Kd [1] [µM],Kp at 20 min [2],"binding to α-synuclein aggregates in SH-SY5Y cells (immunofluorescence, FIG. 1) [3]",other results
CN(C)c1ccc(/C=C/c2nc3cc(F)ccc3n(Cc3ccccn3)c2=O)cc1 [I-1],0.1 to 0.2,,,
CN(C)c1ccc(/C=C/c2nc3cc(F)ccc3n(Cc3cccnc3)c2=O)cc1 [I-2],0.5 to 1,,,
CN(C)c1ccc(/C=C/c2nc3cc(F)ccc3n(Cc3ccncc3)c2=O)cc1 [I-3],0.5 to 1,,,
CN(C)c1ccc(/C=C/c2nc3cc(OCCF)ccc3n(Cc3ccccn3)c2=O)cc1 [I-6],0.2 to 0.5,≥ 1,excellent binding affinity and specificity,
CN(C)c1ccc(/C=C/c2nc3cc(OCCF)ccc3n(Cc3cccnc3)c2=O)cc1 [I-9],0.5 to 1,,,

# The next lines start with results.
Kd [1] [µM],Kp at 20 min [2],Structure (SMILES),"binding to α-synuclein aggregates in SH-SY5Y cells (immunofluorescence, FIG. 1) [3]",other results
0.2 to 0.5,≥ 1,CN(C)c1ccc(/C=C/c2nc3cc(OCCF)ccc3n(Cc3ccncc3)c2=O)cc1 [I-12],excellent binding affinity and specificity,
0.1 to 0.2,≥ 1,CN(C)c1ncc(/C=C/c2nc3cc(OCCF)ccc3n(Cc3ccccn3)c2=O)s1 [I-15],excellent binding affinity and specificity,"binding affinity to α-synuclein lesions (staining of Lewy bodies and Lewy neurites, FIG. 2) ([4]; DLB patient amygdala frozen sections, compound 30 μM, 30 minutes): strong binding affinity; binding to α-synuclein pathological tissue compared with Aβ and Tau pathological tissue (selectivity) ([4]; DLB versus AD brain slices, FIG. 2 and FIG. 3): significantly stronger; binding affinity to Aβ and Tau histology (FIG. 3) [5]: very weak; binding to Tau neurofibrillary filaments (FIG. 3) [5]: did not bind"
